Test results taken from the NIST ThermoML archive (doi:10.1021/je500153g).

Assay: xn = mol fraction of the nth substance listed
Settings: 101 kPa, Liquid; for viscosity: Concentric cylinders viscometry; for mass density: Vibrating tube method

O=S1(=O)CCCC1 [sulfolane] + CC(C)O
Settings	mass density, 303.15 K [kg/m3]	mass density, 313.15 K [kg/m3]	mass density, 323.15 K [kg/m3]	mass density, 333.15 K [kg/m3]	mass density, 343.15 K [kg/m3]	viscosity, 303.15 K [mPa·s]	viscosity, 313.15 K [mPa·s]	viscosity, 323.15 K [mPa·s]	viscosity, 333.15 K [mPa·s]	viscosity, 343.15 K [mPa·s]
x1 = 0.075	823.6	814.6	805.3	795.5	785.2	1.62	1.27	1.01	0.81	0.66
x1 = 0.164	875.9	866.9	857.5	847.9	837.9	1.69	1.34	1.08	0.89	0.74
x1 = 0.25	924	914.8	905.4	896	886	1.85	1.48	1.2	1	0.84
x1 = 0.353	978.7	969.6	960.4	950.7	941.1	2.14	1.71	1.41	1.18	0.99
x1 = 0.437	1021.3	1012.1	1002.9	993.8	984.3	2.43	1.96	1.62	1.36	1.14
x1 = 0.536	1069.3	1060.2	1050.9	1041.6	1032.1	2.91	2.35	1.95	1.64	1.4
x1 = 0.656	1124.3	1115.3	1106.2	1097	1087.7	3.75	3.03	2.5	2.11	1.8
x1 = 0.768	1172.1	1163.1	1154.1	1145.1	1135.9	4.97	3.99	3.27	2.73	2.32
x1 = 0.88	1219.3	1210.4	1201.6	1192.6	1183.7	6.92	5.48	4.45	3.68	3.1
x1 = 1	1262.9	1254.1	1245.2	1236.6	1228.1	10.4	8.07	6.45	5.22	4.32

O=S1(=O)CCCC1 [sulfolane] + CCC(C)O
Settings	mass density, 303.15 K [kg/m3]	mass density, 313.15 K [kg/m3]	mass density, 323.15 K [kg/m3]	mass density, 333.15 K [kg/m3]	mass density, 343.15 K [kg/m3]	viscosity, 303.15 K [mPa·s]	viscosity, 313.15 K [mPa·s]	viscosity, 323.15 K [mPa·s]	viscosity, 333.15 K [mPa·s]	viscosity, 343.15 K [mPa·s]
x1 = 0.099	846.6	837.8	828.8	819.3	809.4	2.16	1.62	1.26	1	0.8
x1 = 0.198	894.1	885.2	876	866.7	857	2.17	1.67	1.33	1.08	0.89
x1 = 0.298	941.7	932.9	923.8	914.6	905	2.34	1.83	1.49	1.21	1.01
x1 = 0.38	980.6	971.7	962.6	953.3	943.9	2.56	2.01	1.63	1.35	1.14
x1 = 0.499	1036.4	1027.5	1018.4	1009.3	1000	2.98	2.37	1.93	1.61	1.37
x1 = 0.593	1079.6	1070.7	1061.8	1052.7	1043.5	3.46	2.77	2.27	1.89	1.62
x1 = 0.691	1125.1	1116.2	1107.2	1098.2	1089.2	4.19	3.36	2.76	2.31	1.97
x1 = 0.799	1173.9	1165.1	1156.2	1147.4	1138.5	5.41	4.32	3.53	2.94	2.49
x1 = 0.9	1219	1210.1	1201.4	1192.5	1183.7	7.23	5.72	4.63	3.82	3.21
x1 = 1	1262.9	1254.1	1245.2	1236.6	1228.1	10.4	8.07	6.45	5.22	4.32

O=S1(=O)CCCC1 [sulfolane] + OCCOCCO
Settings	mass density, 303.15 K [kg/m3]	mass density, 313.15 K [kg/m3]	mass density, 323.15 K [kg/m3]	mass density, 333.15 K [kg/m3]	mass density, 343.15 K [kg/m3]	viscosity, 303.15 K [mPa·s]	viscosity, 313.15 K [mPa·s]	viscosity, 323.15 K [mPa·s]	viscosity, 333.15 K [mPa·s]	viscosity, 343.15 K [mPa·s]
x1 = 0.097	1125	1117.6	1110.2	1102.7	1094.9	19.1	12.9	9.13	6.74	5.15
x1 = 0.198	1140	1132.5	1124.8	1117	1109.1	16.3	11.2	8.04	6.01	4.65
x1 = 0.319	1158.2	1150.3	1142.3	1134.2	1126.1	13.8	9.62	7.03	5.35	4.19
x1 = 0.414	1172.2	1164.2	1156.1	1147.8	1139.6	12.2	8.7	6.46	4.97	3.94
x1 = 0.499	1185.2	1176.9	1168.6	1160.3	1151.9	11.2	8.07	6.07	4.72	3.78
x1 = 0.614	1202.9	1194.5	1186	1177.5	1169	10.2	7.49	5.72	4.5	3.64
x1 = 0.698	1215.6	1207.1	1198.5	1190	1181.3	9.72	7.25	5.61	4.47	3.64
x1 = 0.789	1229.7	1221.1	1212.5	1203.8	1195.1	9.35	7.08	5.54	4.46	3.66
x1 = 0.887	1245	1236.3	1227.5	1218.8	1210.1	9.39	7.23	5.72	4.64	3.84
x1 = 1	1262.9	1254.1	1245.2	1236.6	1228.1	10.4	8.07	6.45	5.22	4.32

OCCOCCOCCO [triethylene glycol] + O=S1(=O)CCCC1
Settings	mass density, 303.15 K [kg/m3]	mass density, 313.15 K [kg/m3]	mass density, 323.15 K [kg/m3]	mass density, 333.15 K [kg/m3]	mass density, 343.15 K [kg/m3]	viscosity, 303.15 K [mPa·s]	viscosity, 313.15 K [mPa·s]	viscosity, 323.15 K [mPa·s]	viscosity, 333.15 K [mPa·s]	viscosity, 343.15 K [mPa·s]
x2 = 0	1116.5	1108.9	1101.1	1093.4	1085.5	29.5	19.3	13.3	9.58	7.16
x2 = 0.123	1130.3	1122.4	1114.6	1106.6	1098.5	25.6	16.9	11.8	8.6	6.49
x2 = 0.268	1147.6	1139.5	1131.5	1123.3	1115	21.2	14.3	10.1	7.49	5.74
x2 = 0.505	1178.8	1170.5	1161.9	1153.4	1145	15.6	10.9	8	6.09	4.78
x2 = 0.598	1192.2	1183.7	1175.1	1166.6	1158	13.9	9.9	7.36	5.67	4.49
x2 = 0.678	1204.5	1196	1187.5	1178.8	1170.1	12.6	9.13	6.88	5.36	4.29
x2 = 0.768	1219	1210.3	1201.5	1192.9	1184.3	11.4	8.4	6.43	5.09	4.12
x2 = 0.837	1231.3	1222.6	1213.9	1205.2	1196.4	10.8	8.11	6.29	5.01	4.1
x2 = 0.929	1248.8	1240	1231.2	1222.4	1213.7	10.3	7.89	6.22	5.02	4.13
